Laboratory results reported in patent US10159640B2, “Prebiotic oral care compositions containing amino acids” (COLGATE-PALMOLIVE COMPANY, priority 2013, dated 2018).

Legend:
Experiment in all cases: Extent of growth, growth curves in BHI
Assay type in all cases: cell-based
Conditions in all cases: control = 1
Streptococcus sanguinis = tested on: Streptococcus sanguinis
Experimental: (§1) The extent of growth of the tested bacteria in response to selected compounds (Met-Pro, Phe-Glu) was investigated by setting up growth curves in a nutritionally rich medium (brain heart infusion broth (BHI), Oxoid), over 48 hours. Late exponential growth phase liquid cultures were prepared by transferring the respective bacterium from blood agar plates to BHI and overnight incubation at 37° C. in an anaerobic atmosphere for A. viscosus, V. parvula, F. nucleatum, P. gingivalis, P. intermedia, T. forsythia, A. naeslundii, and C. sputigena, and in a 5% CO2 environment for S. salivarius, S. sanguinis, S. mitis, A. actinomycetemcomitans, S. mutans, S. sobrinus and S. gordonii. Overnight cultures were transferred to BHI and adjusted to a concentration of 1×10^7 CFU/ml (colony forming units per ml) by measuring the optical density at 600 nm (OD600) (BioRad SmartSpec 3000). For each strain, 200 μl of the bacterial suspension was added to a 96-well plate containing 20 μl of the respective di-peptides. Final concentrations of the di-peptides were set to 5, 10, 20 and 25 μmol/ml. […] Plates were incubated as previously described.
(§2) For each combination of bacterium/dipeptide, and for each of their respective controls (i.e. the particular bacterium in the nutritionally rich medium with no dipeptide), the optical density was measured at 630 nm (OD630) at 0 h, 24 h and 48 h (Thermo Scientific Multiskan Ascent). Additionally, the OD630 for combinations of bacterium/dipeptide grown in a 5% CO2 environment were also measured every hour between 0 h and 9 h.
(§3) The experiment was carried out on three different days (thus providing 3 biological replicas) and on each day the experiment was carried out in quadruple (thus providing 4 technical replicas) for each combination of bacterium with dipeptide and for each control. For each day and for each combination, the average (mean) of the values obtained (as detailed above) for the four technical replicas was calculated to provide a single value for each combination on each day. The values shown in Tables 5 to 6, below, are the average (mean) of the three single values obtained for each combination of bacterium with dipeptide.

Veillonella parvula = tested on: Veillonella parvula
Experimental: as §1, §2, §3

Streptococcus mitis = tested on: Streptococcus mitis
Experimental: as §1, §2, §3

Prevotella intermedia = tested on: Prevotella intermedia
Experimental: as §1, §2, §3

Capnocytophaga sputigena = tested on: Capnocytophaga sputigena
Experimental: as §1, §2, §3

Porphyromonas gingivalis = tested on: Porphyromonas gingivalis
Experimental: as §1, §2, §3

Actinomyces naeslundii = tested on: Actinomyces naeslundii
Experimental: as §1, §2, §3

[1] = tested on: Aggregatibacter actinomycetemcomitans
Experimental: as §1, §2, §3

Streptococcus gordonii = tested on: Streptococcus gordonii
Experimental: as §1, §2, §3

Streptococcus mutans = tested on: Streptococcus mutans
Experimental: as §1, §2, §3

Tannerella forsythia = tested on: Tannerella forsythia
Experimental: as §1, §2, §3

Streptococcus sobrinus = tested on: Streptococcus sobrinus
Experimental: as §1, §2, §3

Streptococcus salivarius = tested on: Streptococcus salivarius
Experimental: as §1, §2, §3

Fusobacterium nucleatum = tested on: Fusobacterium nucleatum
Experimental: as §1, §2, §3

Actinomyces viscosus = tested on: Actinomyces viscosus
Experimental: as §1, §2, §3

Phe-Glu
extent of growth: maximal OD630 over 48 hr divided by maximal OD of control (Streptococcus sanguinis; 5 μmol/ml): 0.8140 | extent of growth: maximal OD630 over 48 hr divided by maximal OD of control (Streptococcus sanguinis; 10 μmol/ml): 0.5644 | extent of growth: maximal OD630 over 48 hr divided by maximal OD of control (Streptococcus sanguinis; 20 μmol/ml): 0.2451 | extent of growth: maximal OD630 over 48 hr divided by maximal OD of control (Streptococcus sanguinis; 25 μmol/ml): 0.2334 | extent of growth: maximal OD630 over 48 hr divided by maximal OD of control (Veillonella parvula; 5 μmol/ml): 1.0286 | extent of growth: maximal OD630 over 48 hr divided by maximal OD of control (Veillonella parvula; 10 μmol/ml): 1.0199 | extent of growth: maximal OD630 over 48 hr divided by maximal OD of control (Veillonella parvula; 20 μmol/ml): 0.9533 | extent of growth: maximal OD630 over 48 hr divided by maximal OD of control (Veillonella parvula; 25 μmol/ml): 1.0475 | extent of growth: maximal OD630 over 48 hr divided by maximal OD of control (Streptococcus mitis; 5 μmol/ml): 1.9957 | extent of growth: maximal OD630 over 48 hr divided by maximal OD of control (Streptococcus mitis; 10 μmol/ml): 2.0642 | extent of growth: maximal OD630 over 48 hr divided by maximal OD of control (Streptococcus mitis; 20 μmol/ml): 0.3250 | extent of growth: maximal OD630 over 48 hr divided by maximal OD of control (Streptococcus mitis; 25 μmol/ml): 0.4367 | extent of growth: maximal OD630 over 48 hr divided by maximal OD of control (Prevotella intermedia; 5 μmol/ml): 1.1149 | extent of growth: maximal OD630 over 48 hr divided by maximal OD of control (Prevotella intermedia; 10 μmol/ml): 0.2856 | extent of growth: maximal OD630 over 48 hr divided by maximal OD of control (Prevotella intermedia; 20 μmol/ml): 0.2094 | extent of growth: maximal OD630 over 48 hr divided by maximal OD of control (Prevotella intermedia; 25 μmol/ml): 0.2224 | extent of growth: maximal OD630 over 48 hr divided by maximal OD of control (Capnocytophaga sputigena; 5 μmol/ml): 0.9921 | extent of growth: maximal OD630 over 48 hr divided by maximal OD of control (Capnocytophaga sputigena; 10 μmol/ml): 0.9872 | extent of growth: maximal OD630 over 48 hr divided by maximal OD of control (Capnocytophaga sputigena; 20 μmol/ml): 1.0801 | extent of growth: maximal OD630 over 48 hr divided by maximal OD of control (Capnocytophaga sputigena; 25 μmol/ml): 1.1804 | extent of growth: maximal OD630 over 48 hr divided by maximal OD of control (Porphyromonas gingivalis; 5 μmol/ml): 0.8526 | extent of growth: maximal OD630 over 48 hr divided by maximal OD of control (Porphyromonas gingivalis; 10 μmol/ml): 0.9810 | extent of growth: maximal OD630 over 48 hr divided by maximal OD of control (Porphyromonas gingivalis; 20 μmol/ml): 0.4181 | extent of growth: maximal OD630 over 48 hr divided by maximal OD of control (Porphyromonas gingivalis; 25 μmol/ml): 0.4208 | extent of growth: maximal OD630 over 48 hr divided by maximal OD of control (Actinomyces naeslundii; 5 μmol/ml): 0.7791 | extent of growth: maximal OD630 over 48 hr divided by maximal OD of control (Actinomyces naeslundii; 10 μmol/ml): 0.4962 | extent of growth: maximal OD630 over 48 hr divided by maximal OD of control (Actinomyces naeslundii; 20 μmol/ml): 0.1648 | extent of growth: maximal OD630 over 48 hr divided by maximal OD of control (Actinomyces naeslundii; 25 μmol/ml): 0.1653 | extent of growth: maximal OD630 over 48 hr divided by maximal OD of control ([1]; 5 μmol/ml): 0.5643 | extent of growth: maximal OD630 over 48 hr divided by maximal OD of control ([1]; 10 μmol/ml): 0.3227 | extent of growth: maximal OD630 over 48 hr divided by maximal OD of control ([1]; 20 μmol/ml): 0.2201 | extent of growth: maximal OD630 over 48 hr divided by maximal OD of control ([1]; 25 μmol/ml): 0.2320 | extent of growth: maximal OD630 over 48 hr divided by maximal OD of control (Streptococcus gordonii; 5 μmol/ml): 0.9682 | extent of growth: maximal OD630 over 48 hr divided by maximal OD of control (Streptococcus gordonii; 10 μmol/ml): 0.8613 | extent of growth: maximal OD630 over 48 hr divided by maximal OD of control (Streptococcus gordonii; 20 μmol/ml): 0.3992 | extent of growth: maximal OD630 over 48 hr divided by maximal OD of control (Streptococcus gordonii; 25 μmol/ml): 0.2908 | extent of growth: maximal OD630 over 48 hr divided by maximal OD of control (Streptococcus mutans; 5 μmol/ml): 0.9703 | extent of growth: maximal OD630 over 48 hr divided by maximal OD of control (Streptococcus mutans; 10 μmol/ml): 0.9003 | extent of growth: maximal OD630 over 48 hr divided by maximal OD of control (Streptococcus mutans; 20 μmol/ml): 0.4212 | extent of growth: maximal OD630 over 48 hr divided by maximal OD of control (Streptococcus mutans; 25 μmol/ml): 0.2492 | extent of growth: maximal OD630 over 48 hr divided by maximal OD of control (Tannerella forsythia; 5 μmol/ml): 1.0118 | extent of growth: maximal OD630 over 48 hr divided by maximal OD of control (Tannerella forsythia; 10 μmol/ml): 0.7490 | extent of growth: maximal OD630 over 48 hr divided by maximal OD of control (Tannerella forsythia; 20 μmol/ml): 0.7707 | extent of growth: maximal OD630 over 48 hr divided by maximal OD of control (Tannerella forsythia; 25 μmol/ml): 0.8302 | extent of growth: maximal OD630 over 48 hr divided by maximal OD of control (Streptococcus sobrinus; 5 μmol/ml): 1.0790 | extent of growth: maximal OD630 over 48 hr divided by maximal OD of control (Streptococcus sobrinus; 10 μmol/ml): 0.9900 | extent of growth: maximal OD630 over 48 hr divided by maximal OD of control (Streptococcus sobrinus; 20 μmol/ml): 0.5832 | extent of growth: maximal OD630 over 48 hr divided by maximal OD of control (Streptococcus sobrinus; 25 μmol/ml): 0.4315 | extent of growth: maximal OD630 over 48 hr divided by maximal OD of control (Streptococcus salivarius; 5 μmol/ml): 0.9916 | extent of growth: maximal OD630 over 48 hr divided by maximal OD of control (Streptococcus salivarius; 10 μmol/ml): 0.8123 | extent of growth: maximal OD630 over 48 hr divided by maximal OD of control (Streptococcus salivarius; 20 μmol/ml): 0.2953 | extent of growth: maximal OD630 over 48 hr divided by maximal OD of control (Streptococcus salivarius; 25 μmol/ml): 0.2322 | extent of growth: maximal OD630 over 48 hr divided by maximal OD of control (Fusobacterium nucleatum; 5 μmol/ml): 0.7990 | extent of growth: maximal OD630 over 48 hr divided by maximal OD of control (Fusobacterium nucleatum; 10 μmol/ml): 0.8493 | extent of growth: maximal OD630 over 48 hr divided by maximal OD of control (Fusobacterium nucleatum; 20 μmol/ml): 0.2311 | extent of growth: maximal OD630 over 48 hr divided by maximal OD of control (Fusobacterium nucleatum; 25 μmol/ml): 0.2402 | extent of growth: maximal OD630 over 48 hr divided by maximal OD of control (Actinomyces viscosus; 5 μmol/ml): 0.5112 | extent of growth: maximal OD630 over 48 hr divided by maximal OD of control (Actinomyces viscosus; 10 μmol/ml): 0.3845 | extent of growth: maximal OD630 over 48 hr divided by maximal OD of control (Actinomyces viscosus; 20 μmol/ml): 0.1598 | extent of growth: maximal OD630 over 48 hr divided by maximal OD of control (Actinomyces viscosus; 25 μmol/ml): 0.1563
